This note sets out measurements from paper PMC4926213, “Synthetic small molecule GLP-1 secretagogues prepared by means of a three-component indole annulation strategy” (Scientific Reports, 2016).

Format in all cases: cell-based
Test [1] concerns the target T1, TRPA1 (Rattus norvegicus, UniProt Q6RI86).
T1 construct: wild-type rat TRPA1 (GenBank AY496961.1), 5' fused to YFP
Briefly: fura-2 Ca2+ assay in HEK-293 cells transfected with rat TRPA1 versus empty vector; loss of response in C622S.

Test [2] concerns the target T2, TRPA1 (Mus musculus, UniProt Q8BLA8).
T2 construct: endogenous channel in mouse STC-1 cells
Briefly: fura-2 Ca2+ assay and whole-cell patch clamp in STC-1 cells; blocked by A967079 and HC030031. In general terms: The patch-clamp technique gives a direct electrical read-out from membranes.

Test [3] has as its target T3, TRPA1 (Rattus norvegicus, UniProt Q6RI86, C622S).
T3 construct: mutant rat C622S TRPA1
Briefly: fura-2 Ca2+ assay in HEK-293 cells transfected with C622S rat TRPA1.

T1 sequence (Q6RI86 whole entry, the tested form may be a part): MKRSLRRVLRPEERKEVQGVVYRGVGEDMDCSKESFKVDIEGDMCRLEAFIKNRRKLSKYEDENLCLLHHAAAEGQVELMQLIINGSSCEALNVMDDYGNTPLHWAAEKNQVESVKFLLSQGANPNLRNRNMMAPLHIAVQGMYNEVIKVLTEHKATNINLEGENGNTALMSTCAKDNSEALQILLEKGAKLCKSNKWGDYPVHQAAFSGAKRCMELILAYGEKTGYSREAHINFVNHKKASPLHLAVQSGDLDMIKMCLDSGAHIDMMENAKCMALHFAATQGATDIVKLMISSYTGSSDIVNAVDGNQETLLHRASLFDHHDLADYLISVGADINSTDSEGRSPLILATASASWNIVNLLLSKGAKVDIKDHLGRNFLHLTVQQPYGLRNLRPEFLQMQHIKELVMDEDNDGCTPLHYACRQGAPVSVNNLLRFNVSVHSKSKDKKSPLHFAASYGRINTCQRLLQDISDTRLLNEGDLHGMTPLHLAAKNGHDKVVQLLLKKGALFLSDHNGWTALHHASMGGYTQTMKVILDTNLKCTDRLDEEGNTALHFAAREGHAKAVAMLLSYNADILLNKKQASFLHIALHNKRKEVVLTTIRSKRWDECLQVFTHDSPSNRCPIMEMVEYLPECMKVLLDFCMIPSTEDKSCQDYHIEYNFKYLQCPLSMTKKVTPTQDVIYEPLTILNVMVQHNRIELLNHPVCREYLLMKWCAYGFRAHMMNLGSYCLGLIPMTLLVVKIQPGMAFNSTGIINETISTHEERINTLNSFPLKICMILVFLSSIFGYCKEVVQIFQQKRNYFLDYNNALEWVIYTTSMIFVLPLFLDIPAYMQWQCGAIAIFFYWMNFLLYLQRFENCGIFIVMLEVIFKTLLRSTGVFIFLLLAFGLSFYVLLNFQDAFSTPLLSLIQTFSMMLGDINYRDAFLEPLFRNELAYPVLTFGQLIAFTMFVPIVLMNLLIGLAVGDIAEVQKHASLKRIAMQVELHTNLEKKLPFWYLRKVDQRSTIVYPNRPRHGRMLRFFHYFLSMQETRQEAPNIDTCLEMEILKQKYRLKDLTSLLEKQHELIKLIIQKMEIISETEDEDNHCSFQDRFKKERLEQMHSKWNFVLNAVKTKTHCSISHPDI
T3 sequence (Q6RI86 whole entry C622S): as the sequence (Q6RI86 whole entry, the tested form may be a part) above, with C622S counted along it
T2 sequence (Q8BLA8 whole entry): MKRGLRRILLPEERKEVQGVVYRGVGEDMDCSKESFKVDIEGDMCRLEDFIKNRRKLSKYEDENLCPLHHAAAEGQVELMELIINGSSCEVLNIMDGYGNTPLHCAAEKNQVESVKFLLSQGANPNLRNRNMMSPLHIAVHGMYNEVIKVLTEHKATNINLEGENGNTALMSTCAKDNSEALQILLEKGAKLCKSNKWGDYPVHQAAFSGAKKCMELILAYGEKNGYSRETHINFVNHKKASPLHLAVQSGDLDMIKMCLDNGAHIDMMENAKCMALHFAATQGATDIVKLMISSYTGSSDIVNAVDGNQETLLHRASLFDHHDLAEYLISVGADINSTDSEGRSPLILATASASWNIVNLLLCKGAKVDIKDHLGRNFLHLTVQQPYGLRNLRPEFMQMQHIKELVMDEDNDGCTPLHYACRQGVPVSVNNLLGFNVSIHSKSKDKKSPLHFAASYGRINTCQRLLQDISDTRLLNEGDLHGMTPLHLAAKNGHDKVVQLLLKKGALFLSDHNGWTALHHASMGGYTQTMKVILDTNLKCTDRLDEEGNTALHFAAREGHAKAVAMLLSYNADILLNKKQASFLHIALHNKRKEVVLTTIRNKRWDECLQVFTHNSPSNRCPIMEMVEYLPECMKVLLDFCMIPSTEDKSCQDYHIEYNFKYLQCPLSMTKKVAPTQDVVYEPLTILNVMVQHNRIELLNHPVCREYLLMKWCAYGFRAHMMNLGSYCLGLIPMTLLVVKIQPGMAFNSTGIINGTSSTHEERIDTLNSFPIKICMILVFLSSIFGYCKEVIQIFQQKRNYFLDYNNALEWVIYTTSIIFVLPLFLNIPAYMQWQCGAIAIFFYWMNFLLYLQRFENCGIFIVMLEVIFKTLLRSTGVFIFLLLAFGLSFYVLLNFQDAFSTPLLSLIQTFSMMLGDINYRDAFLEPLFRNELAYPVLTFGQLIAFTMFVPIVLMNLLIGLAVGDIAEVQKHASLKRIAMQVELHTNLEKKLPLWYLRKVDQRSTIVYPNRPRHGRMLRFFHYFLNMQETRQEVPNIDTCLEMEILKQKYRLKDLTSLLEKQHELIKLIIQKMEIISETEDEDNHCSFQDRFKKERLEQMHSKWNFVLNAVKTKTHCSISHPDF

On to `C=CCN=C=S` [AITC, allyl isothiocyanate], for which, on TRPA1 [1], the “fura-2 Ca2+ assay in HEK-293 cells transfected with rat TRPA1 versus empty vecto” value is recorded as “the electrophile AITC must covalently modify C622 in order to fully activate the channel”.
As usually defined, the EC50 is the concentration giving half of the maximal effect. Read a high EC50 as lower potency in that assay. Consider `CC1(C)c2c([nH]c3ccc(Cl)cc23)C2C=CC1C2` (racemic) [JWU-A021], for which the EC50 at TRPA1 [2] was approximately 200 nM. Besides, the “fura-2 Ca2+ assay in HEK-293 cells transfected with C622S rat TRPA1” value on TRPA1 [3] is reported as “mutant C622S rat TRPA1 cDNA responded to JWU-A021 in a manner nearly identical to that of cells transfected with WT”.
